Test results as given in paper PMC8391236, “Effect of Pterostilbene, a Natural Derivative of Resveratrol, in the Treatment of Colorectal Cancer through Top1/Tdp1-Mediated DNA Repair Pathway” (Cancers, 2021).

What was measured:
[1] = tested on: liver, kidney, lung, and paracancerous colon tissues; experiment: HE staining of organs of orthotopic xenograft mice; assay type: in vivo; details: orthotopic xenograft nude mice
Protocol: (§1) The mice were anaesthetized with 10% chloral hydrate and fixed on the operating table. After the abdomen of the mice was disinfected with iodine, a small section of the large intestine was squeezed out of the surgical opening. The 0.1 mL (per mouse) CL187 cell suspension (1 × 10^7 /mL) was inoculated into the colon wall of nude mice. After the inoculation, the large intestine was placed into the mouse abdominal cavity. After the wound was sutured, the mice were put into cages until they naturally woke up. After 10 days of inoculation, the animals were randomly divided into 4 groups (6 mice per group). Vector control group was intraperitoneally injected with 5% DMSO and 95% saline containing 30% HP-β-CD (i.p.). The drug dosage was designed according to the results of the previous pharmacokinetic experiment. Experimental Group 1 was intraperitoneal injected (i.p.) with PTE 100 mg/kg, and experiment Group 2 was intragastric administrated (i.g.) with PTE 500 mg/kg, once a day. The bioavailability of PTE was the same in the animals in the above regimens. Positive control group was injected with irinotecan, 20 mg/kg, twice a week. During the experiment, the changes of body weight of nude mice were recorded. After 21 days, the nude mice were sacrificed, the tumor blocks were removed surgically, weighed, and recorded. Tumor and organ tissues were paraffin-embedded and sectioned into 4 mm after being fixed in 4% of paraformaldehyde solution for 24 h. The sections were deparaffinized and rehydrated before detection. For histological observation, tumor sections were stained with hematoxylin and eosin (HE), and then observed by an inverted microscopy (Olympus, Japan).

Top1 mRNA = experiment: qPCR of Top1 mRNA in cells; assay type: cell-based, Human; details: 6 h
Protocol: CL187 cells were treated with different concentrations of RE and PTE for 6, 12, 24 h, collected, and added with TRIzol (Thermo Fisher Scientific, Waltham, MA, USA). RNA was precipitated by isopropyl alcohol and washed with 75% ethanol prepared from diethylpyrocarbonate (DEPC) water. The obtained total RNA was dissolved in DEPC water and reverse transcribed into cDNA by a Hifair Ⅲ 1st strand cDNA Synthesis SuperMix for qPCR Kit (Yeasen Biotech, Shanghai, China). The resultant cDNA was used as a template, and the primer sequences were (5′→3′): Top1: F: […], R: […]; Tdp1: F: ACCAGAGTTCAGGAAGAAG, R: TCATAGAGCAGCAGCATC. GAPDH: F: […], R: TCTTCCTCTTGTGCTCTTG. Transcription levels of Top1, Tdp1, and GAPDH genes were determined by qPCR. The qPCR was performed as follows: 95 °C for 10 min, 40 cycles of 95 °C for 10 s, and 60 °C for 30 s. The cycle threshold (Ct) value was determined, and the RQ value was calculated.

siRNA-Top1 CL187 cells = experiment: Cell viability of Top1-silenced cells; assay type: cell-based; details: Homo sapiens, 36 h, siRNA-Top1 CL187, 36 h
Top1 = experiment: Western blot of Top1 protein in cells; assay type: cell-based, Human; details: 6 h
Protocol: CL187 cells were treated with RE or PTE for 6 or 12 h, collected, and placed into lysis buffer (KeyGEN BioTECH, Nanjing, China). The total protein content in the cell lysates was measured using a BCA kit. Equivalent amount of total protein (30 μg) was loaded onto 10% SDS-PAGE gel. Electrophoresis was performed at 80 V for 25 min. After the sample went through concentrated gel, the voltage was adjusted to 120 V. Electrophoresis was stopped when the bromophenol blue band approached the bottom of the gel. After being transferred to PVDF membranes, the samples were incubated separately with 3 types of primary antibodies Top1, Tdp1, and P53 rabbit mAb (CST, Boston, MA, USA), followed by the incubation with secondary antibody goat anti-rabbit IgG (HRP)-conjugated (1:3000). ECL kit (New Cell and Molecular Biotech, Suzhou, China) was used for color development, and the images were collected by the gel imaging system (Tanon-5200, Shanghai, China).

CL187 cells = experiment: Cell cycle analysis by flow cytometry; assay type: cell-based, Human; details: 48 h, blank control 14.70%
[2] = tested on: orthotopic CL187 xenograft; experiment: Orthotopic CL187 xenograft model; assay type: in vivo, BABLc/nude mice; details: for Tumor Weight: 21 days; for Ki67 labeling rate in tumor tissue: vector control 46.53±3.86%
Protocol: as §1, with “recorded.” for “recorded. Tumor and organ tissues were paraffin-embedded and sectioned into 4 mm after being fixed in 4% of paraformaldehyde solution for 24 h. The sections were deparaffinized and rehydrated before detection. For histological observation, tumor sections were stained with hematoxylin and eosin (HE), and then observed by an inverted microscopy (Olympus, Japan).”
Tumor and organ tissues were paraffin-embedded and sectioned into […] after being fixed in 4% of paraformaldehyde solution for 24 h. The sections were deparaffinized and rehydrated before detection. For histological observation, tumor sections were stained with hematoxylin and eosin (HE), and then observed by an inverted microscopy (Olympus, Japan).
For immunohistochemistry analysis, the sections were treated with 3% hydrogen peroxide for 10 min to block endogenous peroxidase, and then incubated with Ki67 primary antibody for overnight at 4 °C. Subsequently, the sections were treated with secondary antibody at room temperature for 20 min. After being washed with PBS, the sections were incubated with DAB chromogenic solution for 10 min, followed by rewashing in PBS. The sections were counterstained with hematoxylin after DAB coloration. The antibody specificity was confirmed by negative control without primary antibody treatment. Immunopositive areas were observed by an inverted microscope (Olympus, Japan).

COc1cc(/C=C/c2ccc(O)cc2)cc(OC)c1 [PTE, 3,5-dimethoxy-4′-hydroxy-trans-stilbene]
effect on lung inflammation (HE sections) [1]: no significant effect on lung inflammation | damage to the liver (HE sections) ([1]; treatment group vs solvent control): caused no additional damage | Top1 mRNA expression (Top1 mRNA; Tdp1-over CL187 cells): suppressed, but there was no significant difference | Top1 mRNA expression (Top1 mRNA; siRNA-Tdp1 CL187 cells): significantly down-regulated | Top1 mRNA expression (Top1 mRNA; wild-type CL187 cells): significantly inhibited | IC50 (siRNA-Top1 CL187 cells): 49 ± 10.1 µM | Top1 protein content (Top1; Tdp1-over CL187 cells): reduced in dese-dependent manner | Top1 protein content (Top1; siRNA-Tdp1 CL187 cells): significantly decreased | Top1 protein content (Top1; wild-type CL187 cells): decreased in PTE treatment group, but neither in dese-dependent and significant manner | proportion of G2/M-phase cells (CL187 cells; CL187, 10 μM): 48.69% | proportion of G2/M-phase cells (CL187 cells; CL187, 20 μM): 52.98% | proportion of G2/M-phase cells (CL187 cells; CL187, 50 μM): 55.33% | Tumor Weight ([2]; 100 mg/kg-i.p. once a day): 0.51 ± 0.12 g | Ki67 labeling rate in tumor tissue ([2]; 100 mg/kg-i.p.): 4.89 ± 1.82% | Tumor Weight ([2]; 500 mg/kg-i.g. once a day): 0.60 ± 0.06 g | Ki67 labeling rate in tumor tissue ([2]; 500 mg/kg-i.g.): 12.03 ± 3.40%
